Results from the NIST ThermoML archive (doi:10.1021/je800622e).
Numbers after ± are expanded uncertainties.

Assay: mn = molality of the nth substance listed, in mol/kg
Conditions: 298.15 K, 101 kPa, Liquid; for molar conductivity: Alternating current cell with electrodes; for mass density: Pycnometric method

molar conductivity (m1 = 0.05) [S·m2/mol]	molar conductivity (m1 = 0.1) [S·m2/mol]	molar conductivity (m1 = 0.15) [S·m2/mol]	molar conductivity (m1 = 0.25) [S·m2/mol]	molar conductivity (m1 = 0.5) [S·m2/mol]	molar conductivity (m1 = 0.75) [S·m2/mol]	molar conductivity (m1 = 1) [S·m2/mol]	mass density (m1 = 0.05) [kg/m3]	mass density (m1 = 0.1) [kg/m3]	mass density (m1 = 0.15) [kg/m3]	mass density (m1 = 0.25) [kg/m3]	mass density (m1 = 0.5) [kg/m3]	mass density (m1 = 0.75) [kg/m3]	mass density (m1 = 1) [kg/m3]	mass density (m1 = 0.02) [kg/m3]	mass density (m1 = 0.06) [kg/m3]	mass density (m1 = 0.2) [kg/m3]	Structure (SMILES)
0.00906 ± 0.00054	0.0085 ± 0.00051	0.008 ± 0.00048	0.00714 ± 0.00043	0.00547 ± 0.00033	0.00419 ± 0.00025	0.00389 ± 0.00023	999 ± 0.89	1000.85 ± 0.89	1002.63 ± 0.9	1006.1 ± 0.9	1014.2 ± 0.91	1021.57 ± 0.91	1028.25 ± 0.92	–	–	–	CCCCn1cc[n+](C)c1.F[B-](F)(F)F [1-butyl-3-methylimidazolium tetrafluoroborate] + O
–	–	–	–	–	–	–	–	1009.9 ± 0.89	1016.06 ± 0.9	1027.95 ± 0.91	–	–	–	999.72 ± 0.88	1004.87 ± 0.89	1022.12 ± 0.91	OC[C@H]1O[C@@](CO)(O[C@H]2O[C@H](CO)[C@@H](O)[C@H](O)[C@H]2O)[C@@H](O)[C@@H]1O [D-sucrose] + O
